Bases are written 5' to 3'; sugars and linkages follow in the same order, as letters with counts (s phosphorothioate, o phosphodiester; PS: all linkages phosphorothioate). The collection does not say whether C is 5-methylated. l = locked nucleic acid (LNA); d = 2'-deoxy (DNA)

This data set addresses Tau. Nature of the data set: rat primary cortical neurons, FLIPR, 25 uM ASO.
For “TGTTGCCTAATGAGCCACAC (sugars l3 d14 l3, PS)”, the calcium oscillation score was 54.2 % of control.

For “GATACTCAAATTCTTCC (sugars l4 d10 l3, PS)”, the calcium oscillation score was 67.8 % of control.

On to “TTAATTATTAAATCTTCTCT (sugars l4 d12 l4, PS)”, for which the calcium oscillation score was 60.1 % of control.

In the case of “TTATTTCCAAATTCACTTTT (sugars llddldldddddddddllll, PS)”, the calcium oscillation score was 118 % of control.

As for TATTTATAGGTGCATA (sugars l3 d9 l4, PS), the calcium oscillation score was 0 % of control.

Take “TCTTTATTAACACTCCACA (sugars l4 d13 l2, PS)”: the calcium oscillation score was 62.5 % of control.

With “CAACTCTTAGCATCCACT (sugars l2 d14 l2, PS)”, the calcium oscillation score is 51.6 % of control.

As for “TTTCAACTCTTAGCATCC (sugars l2 d12 l4, PS)”, the calcium oscillation score is 52.5 % of control.

On to “ACCACATTATCATCCATT (sugars l2 d12 l4, PS)”, for which the calcium oscillation score was 55.7 % of control.

In the case of GTTAGCCCTAAAGTCC (sugars l3 d10 l3, PS), the calcium oscillation score is 110 % of control.

Turning to “GTGGGTGATATTGTCCAGGG (sugars l3 d14 l3, PS)”, the calcium oscillation score was 0 % of control.

Consider “CCCTGAAACCATTAACT (sugars l3 d12 l2, PS)”, for which the calcium oscillation score is 69 % of control.

As to “GGTTAGCCCTAAAGTCCCAG (sugars l3 d14 l3, PS)”, the calcium oscillation score was 37.3 % of control.

For “ACTGGCGACTTGTACACGAT (sugars l3 d14 l3, PS)”, the calcium oscillation score is 0 % of control.

Consider “AAATATCCTTACCATCCTAT (sugars l2 d15 l3, PS)”, for which the calcium oscillation score was 78.8 % of control.

With GAACTGGTTAGCCCTA (sugars l3 d10 l3, PS), the calcium oscillation score was 79.9 % of control.

As for TAAAGTCCCAGGTCT (sugars l3 d9 l3, PS), the calcium oscillation score was 124 % of control.

As for “CTTTATTTCCAAATTCACTT (sugars l3 d1 l1 d11 l4, PS)”, the calcium oscillation score was 129 % of control.

Consider CCGAATTTACACCCAA (sugars l2 d10 l4, PS), for which the calcium oscillation score was 79.1 % of control.

Take “TTATTTCCAAATTCACTTTT (sugars l4 d11 l5, PS)”: the calcium oscillation score was 124 % of control.

TGATTGTGGGCTTA (sugars l3 d8 l3, PS): the calcium oscillation score was 28.7 % of control.

Take “TTATTTCCAAATTCACTTTT (sugars lllddldddddddddldlll, PS)”: the calcium oscillation score is 108 % of control.

Consider “TTTCCTGCAAATTCTCA (sugars l4 d10 l3, PS)”, for which the calcium oscillation score was 66.8 % of control.

As to CCCTTAATTTCACCC (sugars l3 d9 l3, PS), the calcium oscillation score was 103 % of control.

On to CTCTGGTCAAGGCTTT (sugars l3 d10 l3, PS), for which the calcium oscillation score was 0 % of control.

On to “CATCTAAACACCTCAATCCA (sugars l2 d16 l2, PS)”, for which the calcium oscillation score is 72.6 % of control.

Consider “CCATCTTAATTCATTTAATT (sugars l4 d13 l3, PS)”, for which the calcium oscillation score is 69.1 % of control.

As for GAAATCCCTCTACTCC (sugars l2 d11 l3, PS), the calcium oscillation score was 70.7 % of control.

“TTTTTCTCTCTTAACTTTA (sugars l4 d11 l4, PS)”: the calcium oscillation score is 83.6 % of control.

Consider “AAATCCTTAATTTAACCACA (sugars l4 d12 l4, PS)”, for which the calcium oscillation score was 63.1 % of control.

Regarding GTCAACTGGTTTGT (sugars l3 d8 l3, PS), the calcium oscillation score was 89.4 % of control.

In the case of CATGCTTACACACCAC (sugars l2 d10 l4, PS), the calcium oscillation score is 82.9 % of control.

As to “TCCCACCATCCACGCTC (sugars l2 d13 l2, PS)”, the calcium oscillation score is 64.7 % of control.

Consider “CATATTCTTCCCTTAATAA (sugars l3 d13 l3, PS)”, for which the calcium oscillation score is 68 % of control.

As to GCATGATTGTGGGCT (sugars l3 d9 l3, PS), the calcium oscillation score was 0 % of control.

In the case of “TAATTATTAAATCTTCTCTT (sugars l4 d12 l4, PS)”, the calcium oscillation score was 60.1 % of control.

Regarding “CTCAAAATCCTTAATTTAAC (sugars l4 d12 l4, PS)”, the calcium oscillation score is 64.4 % of control.

For AATAAGAAAGGAACGC (sugars l4 d7 l5, PS), the calcium oscillation score was 97.6 % of control.

For GAATATTACACCATCC (sugars l4 d8 l4, PS), the calcium oscillation score was 97 % of control.

As to “GCGAGTCTACCATGTCGATG (sugars l3 d14 l3, PS)”, the calcium oscillation score is 0 % of control.

As to “CCTCCCACCTATCAGTCA (sugars l1 d15 l2, PS)”, the calcium oscillation score was 46.2 % of control.

Take AATATTACATCAGTCT (sugars l4 d8 l4, PS): the calcium oscillation score was 34.6 % of control.

Turning to “TCATTTTTTATTCATAACTT (sugars l4 d12 l4, PS)”, the calcium oscillation score was 62.3 % of control.

As for “GCCATTTTCCATATAAT (sugars l4 d11 l2, PS)”, the calcium oscillation score was 37.5 % of control.

For the sequence “TTTTTACCAATTTGCCT (sugars l2 d11 l4, PS)”, the calcium oscillation score was 55.5 % of control.

As for “TAACCAATTAACCGAACTGC (sugars l3 d14 l3, PS)”, the calcium oscillation score was 125 % of control.

On to “CACTCAAGAAATGGTTTGCT (sugars l3 d14 l3, PS)”, for which the calcium oscillation score is 9.52 % of control.

For “GAGCACTAACTCTAAGTAGA (sugars l3 d14 l3, PS)”, the calcium oscillation score is 23.8 % of control.

As to GTAGACTATTTGCA (sugars l3 d8 l3, PS), the calcium oscillation score is 105 % of control.

With “TCCAGCCATATTTCAACTCT (sugars l3 d14 l3, PS)”, the calcium oscillation score is 45.2 % of control.

As to TTGGATCAGAGGGTCT (sugars l3 d10 l3, PS), the calcium oscillation score was 11.1 % of control.

Take “CTGGCCATCTTATGCTGACC (sugars l3 d14 l3, PS)”: the calcium oscillation score was 12.8 % of control.

With “AATTAACATATTTTTACCT (sugars l4 d11 l4, PS)”, the calcium oscillation score was 75.1 % of control.

For the sequence “CAGAGCTGGGTGGTGTCTTT (sugars l3 d14 l3, PS)”, the calcium oscillation score is 0 % of control.

Regarding AATAAGAAAGGAACGC (sugars l5 d6 l5, PS), the calcium oscillation score is 113 % of control.

For TTCCTGGACCACCTTA (sugars l3 d10 l3, PS), the calcium oscillation score is 59.3 % of control.

Consider GCGACTTGTACACGAT (sugars l3 d10 l3, PS), for which the calcium oscillation score was 32.2 % of control.

Turning to “AAAATATCCTTACCATCCTA (sugars l3 d14 l3, PS)”, the calcium oscillation score is 75.5 % of control.

Take “CTGCTCAGCTAAGACCCTCA (sugars l3 d14 l3, PS)”: the calcium oscillation score is 4.03 % of control.

Regarding “ATACTCAAATTCTTCCTTT (sugars l3 d12 l4, PS)”, the calcium oscillation score was 74 % of control.

“ATTAACATATTTTTACCTA (sugars l4 d11 l4, PS)”: the calcium oscillation score was 65.3 % of control.

“CATCAGCCTTCATCACA (sugars l4 d11 l2, PS)”: the calcium oscillation score is 91.8 % of control.

As for CATTTTTGTCTCATTAT (sugars l4 d9 l4, PS), the calcium oscillation score was 51 % of control.

With “TATTTCCAAATTCACTTTTA (sugars llddldldddddddddllll, PS)”, the calcium oscillation score was 152 % of control.

As to GTCCCGAGCCAAAGCC (sugars l3 d10 l3, PS), the calcium oscillation score was 31.3 % of control.

Regarding “TCCCCATTTATCCTTCA (sugars l2 d13 l2, PS)”, the calcium oscillation score was 65.9 % of control.

For “CGGAAGGTCAGCTTGTGGGT (sugars l3 d14 l3, PS)”, the calcium oscillation score is 14.5 % of control.

Consider “ACATCTCTCTAGACATC (sugars l4 d10 l3, PS)”, for which the calcium oscillation score was 68.4 % of control.

“AAAACATTCTCACCAAACCC (sugars l4 d14 l2, PS)”: the calcium oscillation score was 83.5 % of control.

For the sequence CCTTTGAAAGTCCTTT (sugars l3 d11 l2, PS), the calcium oscillation score is 121 % of control.

GCAAACAGGATACAGT (sugars l3 d10 l3, PS): the calcium oscillation score was 0 % of control.

Take TCCCTTAATTTCACC (sugars l3 d9 l3, PS): the calcium oscillation score is 80.5 % of control.

Consider CCTAATCCTGTGCT (sugars l3 d8 l3, PS), for which the calcium oscillation score was 62.6 % of control.

Take “TCTGTCACTTACTACTCA (sugars l3 d13 l2, PS)”: the calcium oscillation score was 66 % of control.

“TGCTTACACACCACACAC (sugars l2 d13 l3, PS)”: the calcium oscillation score was 60.7 % of control.

As for “GCTCTTCAAATCATTCA (sugars l4 d11 l2, PS)”, the calcium oscillation score is 81.1 % of control.

Consider “ATTTCCAAATTCACTTTTAC (sugars llddlldddddddddlldll, PS)”, for which the calcium oscillation score is 122 % of control.

Regarding TAATTAGAAACCTCCT (sugars l4 d8 l4, PS), the calcium oscillation score is 73.3 % of control.

In the case of ATCGCTTCCAGTCC (sugars l3 d8 l3, PS), the calcium oscillation score was 29.9 % of control.

In the case of GCGGCGCAGGCGCGAG (sugars l3 d10 l3, PS), the calcium oscillation score is 73.6 % of control.

“ACAAACCAGTTACCATC (sugars l3 d10 l4, PS)”: the calcium oscillation score was 87.7 % of control.

Turning to ACATTCTATACTTCAG (sugars l4 d8 l4, PS), the calcium oscillation score is 71.4 % of control.

As for TCCCAGCGTGATCT (sugars l3 d8 l3, PS), the calcium oscillation score is 3.83 % of control.

In the case of CTCCTAATTTTGCACT (sugars l4 d10 l2, PS), the calcium oscillation score is 44.2 % of control.

On to TACAATCCACTCCTCC (sugars l2 d10 l4, PS), for which the calcium oscillation score was 56.4 % of control.

Turning to “CTTTATTTCCAAATTCAC (sugars l3 d11 l4, PS)”, the calcium oscillation score was 112 % of control.

For TTGCTCAGGTCAACTG (sugars l3 d10 l3, PS), the calcium oscillation score was 42.9 % of control.

Take “CCCCACTTTTAATTAAA (sugars l4 d10 l3, PS)”: the calcium oscillation score is 99.7 % of control.

“CTTTATTTCCAAATTCACTT (sugars l4 d11 l5, PS)”: the calcium oscillation score is 136 % of control.

For TCATTCAGCCAATCAC (sugars l4 d9 l3, PS), the calcium oscillation score was 52.4 % of control.

For the sequence “TTAACCAATTAACCGAACTG (sugars l3 d14 l3, PS)”, the calcium oscillation score was 122 % of control.

For “CTTTATTTCCAAATTCACTT (sugars ldlllddddddddddlldll, PS)”, the calcium oscillation score was 134 % of control.

Take “GCCATATTTCAACTCTT (sugars l2 d11 l4, PS)”: the calcium oscillation score is 57.7 % of control.

Take “TGGTTTGTAGACTATTTGCA (sugars l3 d14 l3, PS)”: the calcium oscillation score is 0 % of control.

As to “TTATTTCCAAATTCACTTTT (sugars l2 d2 l2 d10 l4, PS)”, the calcium oscillation score was 123 % of control.

For the origin of these results see the OligoGym collection.
